Results from patent US10202367B2, “Heterocyclic compounds and methods of use thereof” (priority 2014, dated 2019).
“And” between values parts separate entries of the source, which are not always exact repeats. Identical values can stand only once.

Experiments:
[1] = Stability in PBS or PBS/acetonitrile (1/1); assay type: physicochemical; settings: 10 μM, PBS and PBS/acetonitrile (1/1), pH 7.4, room temperature, after 48 hours
Description: (§1) Procedure: […] The mixtures were sampled every hour for eight hours or every 8 hours for 48 hours and analyzed by RP HPLC/UV/HRMS. The analytical RP HPLCUV/HRMS system utilized for the analysis was a Waters Acquity system with UV-detection and mass-detection (Waters SQD). […] Absolute areas under the curve were compared at each time point to determine relative percent compound remaining. The masses of potential adducts were searched for in the final samples to determine if any detectable adduct formed. All samples were prepared in duplicate and the average plotted. Ethacrynic acid, a known Michael acceptor, was used as a positive control. […] To determine the stability of the probe compound to nucleophilic degradation, the compound was dissolved in the two solvent systems above in the presence of 50 μM dithiothreitol (DTT) (FIGS. 2A and 2B).

[2] = Stability to nucleophilic degradation in presence of 50 μM dithiothreitol; assay type: physicochemical; settings: 10 μM, 50 μM DTT, PBS and PBS/acetonitrile (1/1), after 8 hours
Description: as §1

[3] = Aqueous solubility in PBS; assay type: physicochemical
HCVcc-RLuc = HCVcc-RLuc assay, combination of compound 3 with anti-HCV drugs (CalcuSyn / MacSynergy II); assay type: cell-based, Hepatitis C virus; settings: combination
HCVsc, genotype 2a = assay type: cell-based, Hepatitis C virus; settings: 10 μM
[4] = test system: HCV replicon (GT 2a) cells; assay type: cell-based, Hepatitis C virus
GT 2a replicon RNA = assay type: cell-based, Hepatitis C virus
HCVpp GT 1a = experiment: HCVpp entry assay; assay type: cell-based, Hepatitis C virus; settings: Huh7.5.1 cells
VSVpp = assay type: cell-based, vesicular stomatitis virus
Cell permeability = assay type: in vitro ADME
in vitro = settings: rat, microsomes, Rat liver microsomes t ½ (min)

Compound	Sol. [3] [µg/mL]	Permeability (le^−6 cm/s) (Cell permeability)	half-life (in vitro) [min]	other results
Cc1cccc(Cl)c1-c1nc(CN2CCC(C(=O)NCCCN3C[C@H](C)C[C@H](C)C3)CC2)c(C)o1 [Compound 1, 1-((2-(2-Chloro-6-methylphenyl)-5-methyloxazol-4-yl)methyl)-N-(3-(cis-3,5-dimethylpiperidin-1-yl)propyl)piperidine-4-carboxamide]	>74.0			sample still detected in the supernatant [1]: greater than 97%; degradation in presence of dithiothreitol [2]: no measurable degradation; solubility ([3]; phosphate buffered saline (PBS), aqueous buffer, PBS, pH 7.4, room temperature (23° C.)): > 74 µg/mL and > 147 µM
Cc1ccccc1-c1nc(CN2CCC(C(=O)NCCCN3C[C@H](C)C[C@H](C)C3)CC2)c(C)o1 [Compound 3]	53.9			antiviral effect in combination with ribavirin, interferon, telaprevir, daclatasvir, cyclosporin A and 2′-C-methylcytidine (HCVcc-RLuc): synergistic; inhibitory activity on HCVsc infection level (HCVsc, genotype 2a): dramatic inhibitory activities; inhibitory effect on HCV replication, GT 2a replicon cell line ([4]; 10 μM): no inhibitory effect; % RLU at 10 μM, HCV subgenomic replicon GT 2a cell line ([4]; 48 h): 103 % RLU; inhibitory effect on HCV replication, transient transfection with GT 2a replicon RNA (GT 2a replicon RNA; 10 μM): no inhibitory effect; % RLU at 10 μM, HCV subgenomic replicon Transient GT 2a (GT 2a replicon RNA; Huh7.5.1 cells, 48 h): 105 % RLU; % RLU at 10 μM, HCVpp GT 1a (HCVpp GT 1a): < 30 % RLU; % RLU at 10 μM, VSV pp (VSVpp): ~50 % RLU
CCN(CC)CCCCNC(=O)C1CCN(Cc2nc(-c3cc(OC)cc(OC)c3)oc2C)CC1 [Compound 8]	>72.0	10.4		
Cc1ccccc1-c1nc(CN2CCC(C(=O)NCCN3CCCCC3)CC2)c(C)o1 [Compound 11]	47	987.3		
Cc1oc(-c2c(C)c(C)c(C)c(C)c2C)nc1CN1CCC(C(=O)NCCCN2C[C@H](C)C[C@H](C)C2)CC1 [Compound 56]		455.2		
Cc1ccccc1-c1nc(CC2CCC[C@@H](C(=O)CCCCN3C[C@H](C)C[C@H](C)C3)C2)c(C)o1 (some centres unmarked) [Compound 66]	57.8	864.8	3.9	
Cc1ccccc1-c1nc(CN2CCC[C@@H](C(=O)NCCCN3C[C@H](C)C[C@H](C)C3)C2)c(C)o1 [Compound 67]	57.8	864.8	3.9	
C[C@@H]1C[C@H](C)CN(CCCNC(=O)C2CCN(Cc3oc(-c4cc(C(F)(F)F)cc(C(F)(F)F)c4)nc3C(F)(F)F)CC2)C1 [Compound 68]	2.5	1061	16.4	
CC1CCCN(CCCNC(=O)C2CCN(Cc3oc(-c4cc(C(F)(F)F)cc(C(F)(F)F)c4)nc3C(F)(F)F)CC2)C1 (centres unmarked) [Compound 69]		>1397	5.7	
